In ChEMBL document CHEMBL1129313, “Oxidation chemistry of (-)-norepinephrine in the presence of L-cysteine” (J Med Chem, 1996):
Activity calls are given as the source filed them. The calls are words filed in the database; no cut-off is given here.

What was measured:
Mus musculus [1] = experiment: In vivo toxic dose of injected compound at a dose of 5 to 100 ug at which 50% of mice died within 1 hr of treatment; type: ADME, organism-based
Mus musculus [2] = experiment: In vivo toxic dose of injected compound at a dose of 10 to 100 ug at which 50% of mice died within 1 hr of treatment; type: ADME, organism-based
Mus musculus [3] = experiment: In vivo behavioral response evoked when a dose of 100 microg injected into mice under light ether anesthesia; No response; type: functional, organism-based

With NCC(O)c1cc(O)c2c(c1)SCC(C(=O)O)N2 (stereo unspecified) the LD50 (Mus musculus [1]) was 17.8 µg.
With NCC(O)c1ccc(O)c2c1SCC(C(=O)O)N2 (stereo unspecified) the LD50 (Mus musculus [2]) was 23.4 µg.
With NCC(O)c1cc(SCC(N)C(=O)O)c(O)c2c1SCC(C(=O)O)N2 (stereo unspecified) the Activity (Mus musculus [3]) was “inactive”.
For NCC(O)c1c2c(c(O)c(SCC(N)C(=O)O)c1SCC(N)C(=O)O)NC(C(=O)O)CS2 (stereo unspecified), the Activity (Mus musculus [3]) was “inactive”.
For NCC(O)c1cc(O)c(O)c(SCC(N)C(=O)O)c1 (stereo unspecified), the Activity (Mus musculus [3]) was “inactive”.
With NCC(O)c1cc(SCC(N)C(=O)O)c(O)c(O)c1SCC(N)C(=O)O (stereo unspecified) the Activity (Mus musculus [3]) was “inactive”.
